Experiment [1] relates to T cell transfer adoptive model of colitis. Kind of experiment: T cell transfer adoptive model of colitis, body weight. It is filed as in vivo, C57BL/6NRj-Rag2^tm1Ciphe/Rj mice. The settings on record: day 55; oral daily; ABX464 100 mg/kg, etrasimod 3 mg/kg, ozanimod 1.5 mg/kg, alone or combined. The procedure: (§1) 8-week-old male C57BL/6 mice and 6-week-old male C57BL/6NRj-Rag2^tm1Ciphe/Rj mice were purchased from Janvier Labs and housed in accordance with French and European regulations. The colony is maintained at 21±1° C., 50±5% humidity and under an alternating 12/12-hours light/dark cycle (light at 6:00 AM). Standard food and water were given ad libitum. Animals were allowed to acclimate to the animal facility at least 10 days prior to conducting the study.
Spleens were dissected from C57BL/6 male donor mice and placed in a PBS+2% FBS buffer. Single-cell suspension was generated with Gentle Macs Dissociator followed by mashing cells through 40-μm nylon mesh strainers. Cells were pelleted and suspended in ACK lysis buffer for 5 minutes at RT (room temperature) followed by the addition of cold PBS+2% FBS buffer. CD4+ T cells were enriched by negative selection using a CD4+ T-cell isolation kit (Miltenyi) and LS magnetic columns. The flow through was collected, and cells were centrifuged and resuspended in PBS+2% FBS buffer. Antibodies (CD45RB-PE; CD4 FITC) were added and incubated on ice for 30 minutes protected from light. Cells were washed with buffer, centrifuged, resuspended and sorted using BD FACSAria™ Fusion Flow Cytometer. […]
Weight was monitored over the period of the study (55 days), and the effect on body weight over the time period is shown in FIGS. 1A-1B. […]

For experiment [2], the system named is cytokines (TNFα, IL-6, IFNg, and IL17) in blood. Kind of experiment: T cell transfer adoptive model of colitis, cytokine levels in blood (V-PLEX proinflammatory panel). The class given is in vivo, C57BL/6NRj-Rag2^tm1Ciphe/Rj mice. The settings on record: day 55; oral daily; ABX464 100 mg/kg, etrasimod 3 mg/kg, ozanimod 1.5 mg/kg, alone or combined. The procedure: as §1
Spleens were dissected from C57BL/6 male donor mice and placed in a PBS+2% FBS buffer. Single-cell suspension was generated with Gentle Macs Dissociator followed by mashing cells through 40-μm nylon mesh strainers. Cells were pelleted and suspended in ACK lysis buffer for 5 minutes at RT (room temperature) followed by the addition of cold PBS+2% FBS buffer. CD4+ T cells were enriched by negative selection using a CD4+ T-cell isolation kit (Miltenyi) and LS magnetic columns. The flow through was collected, and cells were centrifuged and resuspended in PBS+2% FBS buffer. Antibodies (CD45RB-PE; CD4 FITC) were added and incubated on ice for 30 minutes protected from light. Cells were washed with buffer, centrifuged, resuspended and sorted using BD FACSAria™ Fusion Flow Cytometer. CD4+CD45high and CD4+CD45low cells were sorted, centrifuged and resuspended in sterile PBS. A total of 5×10^5 cells CD4+CD45high or CD4+CD45low were intraperitoneally injected to 6-week-old male C57BL/6NRj-Rag2^tm1Ciphe/Rj mice. The group “high” (injected with CD4+CD45high) represents the […] and the group “low” (injected with CD4+CD45low) represents the […].
Rag2^tm1Ciphe/Rj mice injected with CD4+CD45high or CD4+CD45low (controls) were orally dosed daily (10 ml/kg) beginning on the day of the transfer (1 h before the cell transfer at Day 0) until day 55 with vehicle (0.5% methylcellulose) and Rag2^tm1Ciphe/Rj mice injected with CD4+CD45high were orally dosed daily with one of the following 8-Chloro-N-(4-(trifluoromethoxy)phenyl)quinolin-2-amine (ABX464) (100 mg/kg), Etrasimod (3 mg/kg), Ozanimod (1.5 mg/kg), ABX464+Etrasimod (100 mg/kg and 3 mg/kg) or ABX464+Ozanimod (100 mg/kg and 1.5 mg/kg). All mice were weighed daily.
At day 55, mice were anesthetized with isoflurane. Blood was collected at Tmax and mice were euthanized to harvest tissues. Cytokines concentrations plasma were determined using V-PLEX proinflammatory Panel mouse kit (Meso Scale Diagnostics).
Statistical analysis was performed on mean+/−standard deviation by one way ANOVA followed by Kruskal-Wallis's multiple comparisons test. Asterisk indicates the significance of the differences: *P<0.05, **P<0.01, ***P<0.001, ****P<0.0001.
In addition, a Welch ANOVA was performed on log transformed data for each cytokine, based on the above results.
A synergy was assessed by comparing each combination group effect versus vehicle to the sum of the corresponding compound alone groups' effects versus vehicle (Bonferroni-Holm's adjustment for multiplicity).
The following tables give the estimation and 95% confidence interval (95% CI) of the difference between Combination effect and Sum of compounds alone effects for each cytokine.

Experiment [3] has as its system peripheral blood lymphocytes. The settings on record: oral administration; cited from earlier work.
Experiment [4] concerns chronic plaque psoriasis; relapsing-remitting multiple sclerosis. The settings on record: patients with moderate to severe chronic plaque psoriasis and patients with relapsing-remitting multiple sclerosis; cited from earlier work.
The test system of a further experiment is active SPMS. The conditions noted are these: cited from earlier work.

For `FC(F)(F)Oc1ccc(Nc2ccc3cccc(Cl)c3n2)cc1` [ABX464, 8-Chloro-N-(4-(trifluoromethoxy)phenyl)quinolin-2-amine], the body weight entry in experiment [1] was “weight gain”. Also, in experiment [2], the “plasma level of IFNg” value is given as “did not reduce”, the “plasma level of IL17” value is listed as “reduced”, the “plasma level of IL-6” value is recorded as “did not reduce” and the “plasma level of TNFα” value is “reduced”.
As to `O=C(O)C[C@H]1CCc2c1[nH]c1ccc(OCc3ccc(C4CCCC4)c(C(F)(F)F)c3)cc21` [Etrasimod], in experiment [1], the body weight entry was “protection from weight loss”. For the same molecule, in experiment [2], the “plasma level of IFNg” value is given as “reduced”, the “plasma level of IL17” value was “did not reduce”, the “plasma level of IL-6” value is given as “did not reduce” and the “plasma level of TNFα” value is on record as “reduced”.
On to `CC(C)Oc1ccc(-c2nc(-c3cccc4c3CC[C@@H]4NCCO)no2)cc1C#N` [Ozanimod], for which, in experiment [2], the “plasma level of IFNg” value is “reduced”, the “plasma level of IL17” value is recorded as “did not reduce”, the “plasma level of IL-6” value is given as “did not reduce” and the “plasma level of TNFα” value is recorded as “reduced”.
Turning to `CCC/N=C1\S/C(=C\c2ccc(OC[C@H](O)CO)c(Cl)c2)C(=O)N1c1ccccc1C` [Ponesimod, (R)-5-[3-chloro-4-(2,3-dihydroxy-propoxy)-benz[Z]ylidene]-2-([Z]-propylimino)-3-o-tolyl-thiazolidin-4-one], the “number of peripheral blood lymphocytes” value in experiment [3] is “consistent, sustained, and dose-dependent reduction”. Further, the “clinical benefit in phase II/phase III trials” value in experiment [4] is “clinical benefit”.
On to `CCc1cc(/C(C)=N/OCc2ccc(C3CCCCC3)c(C(F)(F)F)c2)ccc1CN1CC(C(=O)O)C1` [Siponimod, 1-(4-[1-[(E)-4-Cyclohexyl-3-trifluoromethyl-benzyloxyimino]-ethyl]-2-ethyl-benzyl)-azetidine-3-carboxylic acid], for which the “risk of disability and MS relapses” value in the experiment on active SPMS is recorded as “decreases”.
